Earlier results as cited in US7205435B2 (priority 2001, dated 2007).

Tested on: mouse phrenic nerve
Conditions: in vivo

Question: Which effective dose does the source give for `CC(C)C[C@H](NP(=O)(O)O[C@@H]1O[C@@H](C)[C@H](O)[C@@H](O)[C@H]1O)C(=O)N[C@@H](Cc1c[nH]c2ccccc12)C(=O)O` [phosphoramidon] here?
Answer: 0.2 mM
